These results are taken from patent US20150274719A1, “AMINO-SUBSTITUTED IMIDAZO[1,2-A]PYRIDINECARBOXAMIDES AND THEIR USE” (BAYER PHARMA AKTIENGESELLSCHAFT, priority 2012, published 2015).

Structures are written as SMILES.

For the experiment, the target named is T1, recombinant guanylate cyclase reporter cell line (Rattus norvegicus, UniProt P19686+P20595).
T1 construct: expressed in transfected cells; host or cells: recombinant reporter cell line
T1 sequence (P19686 1-690): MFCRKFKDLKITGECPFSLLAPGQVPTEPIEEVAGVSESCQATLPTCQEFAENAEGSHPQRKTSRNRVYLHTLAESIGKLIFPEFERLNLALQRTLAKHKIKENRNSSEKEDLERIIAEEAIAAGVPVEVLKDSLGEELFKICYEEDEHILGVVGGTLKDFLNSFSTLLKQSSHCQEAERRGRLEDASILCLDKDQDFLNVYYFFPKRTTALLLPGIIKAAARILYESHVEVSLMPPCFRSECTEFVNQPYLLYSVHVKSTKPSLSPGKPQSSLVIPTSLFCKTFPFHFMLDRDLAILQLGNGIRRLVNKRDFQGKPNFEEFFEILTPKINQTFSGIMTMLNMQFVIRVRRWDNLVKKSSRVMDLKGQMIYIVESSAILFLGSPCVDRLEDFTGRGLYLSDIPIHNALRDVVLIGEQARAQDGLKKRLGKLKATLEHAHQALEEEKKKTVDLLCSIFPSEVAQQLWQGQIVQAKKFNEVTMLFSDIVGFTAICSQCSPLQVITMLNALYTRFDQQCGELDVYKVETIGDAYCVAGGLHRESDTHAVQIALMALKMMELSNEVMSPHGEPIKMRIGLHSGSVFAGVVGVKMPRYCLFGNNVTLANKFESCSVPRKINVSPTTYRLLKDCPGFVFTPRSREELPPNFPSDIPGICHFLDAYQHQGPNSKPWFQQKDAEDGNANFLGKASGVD
T1 sequence (P20595 1-619): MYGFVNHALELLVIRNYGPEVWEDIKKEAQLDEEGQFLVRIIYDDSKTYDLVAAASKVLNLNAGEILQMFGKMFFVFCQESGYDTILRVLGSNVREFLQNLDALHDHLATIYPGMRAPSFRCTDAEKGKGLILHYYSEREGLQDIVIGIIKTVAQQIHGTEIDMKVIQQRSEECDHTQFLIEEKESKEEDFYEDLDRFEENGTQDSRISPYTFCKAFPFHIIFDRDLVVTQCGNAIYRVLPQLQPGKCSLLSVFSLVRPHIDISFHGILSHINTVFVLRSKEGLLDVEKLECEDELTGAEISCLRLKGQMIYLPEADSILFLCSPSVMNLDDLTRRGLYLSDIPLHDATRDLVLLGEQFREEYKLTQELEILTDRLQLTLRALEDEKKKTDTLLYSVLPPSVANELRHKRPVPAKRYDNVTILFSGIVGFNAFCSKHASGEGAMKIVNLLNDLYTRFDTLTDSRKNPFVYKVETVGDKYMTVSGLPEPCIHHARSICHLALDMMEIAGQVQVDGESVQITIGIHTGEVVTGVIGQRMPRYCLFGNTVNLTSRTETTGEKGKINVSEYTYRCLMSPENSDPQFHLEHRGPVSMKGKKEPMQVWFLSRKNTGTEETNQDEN
The experiment is described as follows: Action on recombinant guanylate cyclase reporter cell line. The experiment is classed as cell-based. To be noted: in some cases mean values from individual determinations. Put shortly: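 Cellular activity was measured in a reporter cell line expressing recombinant guanylate cyclase. Values are given as MEC, the minimal effective concentration, and some are means of individual determinations.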
Consider `CCCC[C@H](CN1CCN(C)CC1)NC(=O)c1c(C)nc2c(OCc3c(F)cccc3F)cccn12` [Example 67, ent-8-[(2,6-difluorobenzyl)oxy]-2-methyl-N-[(2R)-1-(4-methylpiperazin-1-yl)hexan-2-yl]imidazo[1,2-a]pyridine-3-carboxamide], for which the “MEC (minimal effective concentration)” value was 0.30 µM. Regarding `Cc1nc2c(OCc3c(F)cccc3F)cccn2c1C(=O)NC(CN1CCOCC1)c1ccccc1` (single isomer, unassigned; ent-8) [Example 183, ent-8-[(2,6-Difluorobenzyl)oxy]-2-methyl-N-[2-(morpholin-4-yl)-1-phenylethyl]imidazo[1,2-a]-pyridine-3-carboxamide], the “MEC (minimal effective concentration)” value amounted to 1.00 µM. `Cc1cc(OCc2c(F)cccc2F)c2nc(C)c(C(=O)NCC(N)c3cccc(C(F)(F)F)c3)n2c1` (racemic) [Example 376, rac-N-{2-amino-2-[3-(trifluoromethyl)phenyl]ethyl}-8-[(2,6-difluorobenzyl)oxy]-2,6-dimethylimidazo[1,2-a]pyridine-3-carboxamide]: the “MEC (minimal effective concentration)” value came out at 3.00 µM. Take `Cc1nc2c(OCc3c(F)cccc3F)cccn2c1C(=O)NCC(C)(N)CCOCc1ccccc1` (racemic) [Example 264, rac-N-[2-amino-4-(benzyloxy)-2-methylbutyl]-8-[(2,6-difluorobenzyl)oxy]-2-methylimidazo[1,2-a]pyridine-3-carboxamide]: the “MEC (minimal effective concentration)” value was determined as 0.03 µM. With `Cc1nc2c(OCc3c(F)cccc3F)cccn2c1C(=O)NC12CNCCC1C2` (single isomer, unassigned) [Example 185, ent-N-(3-Azabicyclo[4.1.0]hept-1-yl)-8-[(2,6-difluorobenzyl)oxy]-2-methylimidazo[1,2-a]pyridine-3-carboxamide], the “MEC (minimal effective concentration)” value stood at 1.00 µM. The same measure for `Cc1cc(OCc2c(F)cccc2F)c2nc(C)c(C(=O)NC3CCC3N)n2c1` (single isomer, unassigned; enantiomer b) [Example 329, ent-N-(2-aminocyclobutyl)-8-[(2,6-difluorobenzyl)oxy]-2,6-dimethylimidazo[1,2-a]pyridine-3-carboxamide (Enantiomer B)]: 0.30 µM; for `Cc1cc(OCc2c(F)cccc2F)c2nc(C)c(C(=O)NCC(C)(N)Cc3nc4ccccc4s3)n2c1` (racemic) [Example 310, rac-N-[2-amino-3-(1,3-benzothiazol-2-yl)-2-methylpropyl]-8-[(2,6-difluorobenzyl)oxy]-2,6-dimethylimidazo[1,2-a]pyridine-3-carboxamide]: 0.30 µM.

In the case of `Cc1cc(OCc2c(F)cccc2F)c2nc(C)c(C(=O)NCC3CNCCO3)n2c1` (racemic) [Example 345, rac-8-[(2,6-Difluorobenzyl)oxy]-2,6-dimethyl-N-(morpholin-2-ylmethyl)imidazo[1,2-a]pyridine-3-carboxamide], the “MEC (minimal effective concentration)” value worked out at 1.00 µM. The same measure for `Cc1cc(OCc2c(F)cccc2F)c2nc(C)c(C(=O)NC(CN)c3cccc(OCCO)c3)n2c1` (racemic) [Example 393, rac-N-{2-amino-1-[3-(2-hydroxyethoxy)phenyl]ethyl}-8-[(2,6-difluorobenzyl)oxy]-2,6-dimethylimidazo[1,2-a]pyridine-3-carboxamide]: 1.00 µM. Turning to `Cc1cc(OCc2c(F)cccc2F)c2nc(C)c(C(=O)NCC(N)CC(F)(F)F)n2c1` (single isomer, unassigned) [Example 128, ent-N-(2-Amino-4,4,4-trifluorobutyl)-8-[(2,6-difluorobenzyl)oxy]-2,6-dimethylimidazo[1,2-a]-pyridine-3-carboxamide], the “MEC (minimal effective concentration)” value amounted to 0.10 µM.

Take `CCCC(C)(N)CNC(=O)c1c(C)nc2c(OC(C)c3c(F)cccc3F)cc(C)cn12` (centres unmarked) [Example 257, N-(2-Amino-2-methylpentyl)-8-[1-(2,6-difluorophenyl)ethoxy]-2,6-dimethylimidazo[1,2-a]-pyridine-3-carboxamide]: the “MEC (minimal effective concentration)” value is 1.00 µM.
